Data taken from ChEMBL document CHEMBL1687815, “In vivo selection of a missense mutation in adeR and conversion of the novel blaOXA-164 gene into blaOXA-58 in carbapenem-resistant Acinetobacter baumannii isolates from a hospitalized patient” (2010).
≈ marks a conversion by molar mass, not a printed value. Values belong to the compound of their own block, whether it stands above or below them. Calls of active or inactive are those of the source. The rule behind the calls is not given here.

Assays:
Acinetobacter baumannii [1] = experiment: Antimicrobial activity against Acinetobacter baumannii isolate J expressing beta-lactamase OXA-58 isolated from bedsore by vitek 2 system
Acinetobacter baumannii [2] = experiment: Antimicrobial activity against Acinetobacter baumannii isolate F expressing beta-lactamase OXA-164 isolated from tracheostoma of patient by vitek 2 system
Acinetobacter baumannii [3] = experiment: Antimicrobial activity against Acinetobacter baumannii isolate K expressing beta-lactamase OXA-58 isolated from blood culture of patient by vitek 2 system
Acinetobacter baumannii [4] = experiment: Antimicrobial activity against Acinetobacter baumannii isolate G expressing beta-lactamase OXA-58 isolated from tracheal secretion of patient by vitek 2 system
Acinetobacter baumannii [5] = experiment: Antimicrobial activity against Acinetobacter baumannii isolate H expressing beta-lactamase OXA-58 isolated from tracheal secretion of patient by vitek 2 system
Acinetobacter baumannii [6] = experiment: Antimicrobial activity against Acinetobacter baumannii isolate I expressing beta-lactamase OXA-58 isolated from tracheal secretion of patient by vitek 2 system
Acinetobacter baumannii [7] = experiment: Antimicrobial activity against Acinetobacter baumannii isolate L expressing beta-lactamase OXA-58 isolated from tracheal secretion of patient by vitek 2 system
Acinetobacter baumannii [8] = experiment: Antimicrobial activity against Acinetobacter baumannii isolate M expressing beta-lactamase OXA-58 isolated from tracheal secretion of patient by vitek 2 system
Acinetobacter baumannii [9] = experiment: Antimicrobial activity against Acinetobacter baumannii isolate A expressing beta-lactamase OXA-164 isolated from tracheal secretion of patient by vitek 2 system
Acinetobacter baumannii [10] = experiment: Antimicrobial activity against Acinetobacter baumannii isolate B expressing beta-lactamase OXA-164 isolated from tracheal secretion of patient by vitek 2 system
Acinetobacter baumannii [11] = experiment: Antimicrobial activity against Acinetobacter baumannii isolate C expressing beta-lactamase OXA-164 isolated from tracheal secretion of patient by vitek 2 system
Acinetobacter baumannii [12] = experiment: Antimicrobial activity against Acinetobacter baumannii isolate D expressing beta-lactamase OXA-164 isolated from tracheal secretion of patient by vitek 2 system
Acinetobacter baumannii [13] = experiment: Antimicrobial activity against Acinetobacter baumannii isolate E expressing beta-lactamase OXA-164 isolated from tracheal secretion of patient by vitek 2 system
Acinetobacter baumannii [14] = experiment: Antimicrobial activity against Acinetobacter baumannii isolate J expressing beta-lactamase OXA-58 isolated from bedsore in presence of Tazobactam by vitek 2 system
Acinetobacter baumannii [15] = experiment: Antimicrobial activity against Acinetobacter baumannii isolate F expressing beta-lactamase OXA-164 isolated from tracheostoma of patient in presence of Tazobactam by vitek 2 system
Acinetobacter baumannii [16] = experiment: Antimicrobial activity against Acinetobacter baumannii isolate K expressing beta-lactamase OXA-58 isolated from blood culture of patient in presence of Tazobactam by vitek 2 system
Acinetobacter baumannii [17] = experiment: Antimicrobial activity against Acinetobacter baumannii isolate G expressing beta-lactamase OXA-58 isolated from tracheal secretion of patient in presence of Tazobactam by vitek 2 system
Acinetobacter baumannii [18] = experiment: Antimicrobial activity against Acinetobacter baumannii isolate H expressing beta-lactamase OXA-58 isolated from tracheal secretion of patient in presence of Tazobactam by vitek 2 system
Acinetobacter baumannii [19] = experiment: Antimicrobial activity against Acinetobacter baumannii isolate I expressing beta-lactamase OXA-58 isolated from tracheal secretion of patient in presence of Tazobactam by vitek 2 system
Acinetobacter baumannii [20] = experiment: Antimicrobial activity against Acinetobacter baumannii isolate L expressing beta-lactamase OXA-58 isolated from tracheal secretion of patient in presence of Tazobactam by vitek 2 system
Acinetobacter baumannii [21] = experiment: Antimicrobial activity against Acinetobacter baumannii isolate M expressing beta-lactamase OXA-58 isolated from tracheal secretion of patient in presence of Tazobactam by vitek 2 system
Acinetobacter baumannii [22] = experiment: Antimicrobial activity against Acinetobacter baumannii isolate A expressing beta-lactamase OXA-164 isolated from tracheal secretion of patient in presence of Tazobactam by vitek 2 system
Acinetobacter baumannii [23] = experiment: Antimicrobial activity against Acinetobacter baumannii isolate B expressing beta-lactamase OXA-164 isolated from tracheal secretion of patient in presence of Tazobactam by vitek 2 system
Acinetobacter baumannii [24] = experiment: Antimicrobial activity against Acinetobacter baumannii isolate C expressing beta-lactamase OXA-164 isolated from tracheal secretion of patient in presence of Tazobactam by vitek 2 system
Acinetobacter baumannii [25] = experiment: Antimicrobial activity against Acinetobacter baumannii isolate D expressing beta-lactamase OXA-164 isolated from tracheal secretion of patient in presence of Tazobactam by vitek 2 system
Acinetobacter baumannii [26] = experiment: Antimicrobial activity against Acinetobacter baumannii isolate E expressing beta-lactamase OXA-164 isolated from tracheal secretion of patient in presence of Tazobactam by vitek 2 system
Escherichia coli [27] = experiment: Antimicrobial activity against Escherichia coli NEB 5-alpha harboring plasmid WH1266 by Etest; format: functional
Escherichia coli [28] = experiment: Antimicrobial activity against Escherichia coli NEB 5-alpha harboring beta-lactamase OXA-164 by Etest; format: functional
Escherichia coli [29] = experiment: Antimicrobial activity against Escherichia coli NEB 5-alpha harboring beta-lactamase OXA-58 by Etest; format: functional
Acinetobacter baumannii [30] = experiment: Antimicrobial activity against Acinetobacter baumannii ATCC 19606 harboring plasmid WH1266 by Etest; format: functional; conditions: ATCC 19606 = CIP 70.34 = JCM 6841
Acinetobacter baumannii [31] = experiment: Antimicrobial activity against Acinetobacter baumannii ATCC 19606 harboring beta-lactamase OXA-164 by Etest; format: functional; conditions: ATCC 19606 = CIP 70.34 = JCM 6841
Acinetobacter baumannii [32] = experiment: Antimicrobial activity against Acinetobacter baumannii ATCC 19606 harboring beta-lactamase OXA-58 by Etest; format: functional; conditions: ATCC 19606 = CIP 70.34 = JCM 6841
Acinetobacter baumannii [33] = experiment: Antimicrobial activity against Acinetobacter baumannii ATCC 17978 harboring plasmid WH1266 by Etest; format: functional
Acinetobacter baumannii [34] = experiment: Antimicrobial activity against Acinetobacter baumannii ATCC 17978 harboring beta-lactamase OXA-164 by Etest; format: functional
Acinetobacter baumannii [35] = experiment: Antimicrobial activity against Acinetobacter baumannii ATCC 17978 harboring beta-lactamase OXA-58 by Etest; format: functional
Acinetobacter baumannii [36] = experiment: Antimicrobial activity against Acinetobacter baumannii isolate J expressing beta-lactamase OXA-58 isolated from bedsore by Etest
Acinetobacter baumannii [37] = experiment: Antimicrobial activity against Acinetobacter baumannii isolate F expressing beta-lactamase OXA-164 isolated from tracheostoma of patient by Etest
Acinetobacter baumannii [38] = experiment: Antimicrobial activity against Acinetobacter baumannii isolate K expressing beta-lactamase OXA-58 isolated from blood culture of patient by Etest
Acinetobacter baumannii [39] = experiment: Antimicrobial activity against Acinetobacter baumannii isolate G expressing beta-lactamase OXA-58 isolated from tracheal secretion of patient by Etest
Acinetobacter baumannii [40] = experiment: Antimicrobial activity against Acinetobacter baumannii isolate H expressing beta-lactamase OXA-58 isolated from tracheal secretion of patient by Etest
Acinetobacter baumannii [41] = experiment: Antimicrobial activity against Acinetobacter baumannii isolate I expressing beta-lactamase OXA-58 isolated from tracheal secretion of patient by Etest
Acinetobacter baumannii [42] = experiment: Antimicrobial activity against Acinetobacter baumannii isolate L expressing beta-lactamase OXA-58 isolated from tracheal secretion of patient by Etest
Acinetobacter baumannii [43] = experiment: Antimicrobial activity against Acinetobacter baumannii isolate M expressing beta-lactamase OXA-58 isolated from tracheal secretion of patient by Etest
Acinetobacter baumannii [44] = experiment: Antimicrobial activity against Acinetobacter baumannii isolate A expressing beta-lactamase OXA-164 isolated from tracheal secretion of patient by Etest
Acinetobacter baumannii [45] = experiment: Antimicrobial activity against Acinetobacter baumannii isolate B expressing beta-lactamase OXA-164 isolated from tracheal secretion of patient by Etest
Acinetobacter baumannii [46] = experiment: Antimicrobial activity against Acinetobacter baumannii isolate C expressing beta-lactamase OXA-164 isolated from tracheal secretion of patient by Etest
Acinetobacter baumannii [47] = experiment: Antimicrobial activity against Acinetobacter baumannii isolate D expressing beta-lactamase OXA-164 isolated from tracheal secretion of patient by Etest
Acinetobacter baumannii [48] = experiment: Antimicrobial activity against Acinetobacter baumannii isolate E expressing beta-lactamase OXA-164 isolated from tracheal secretion of patient by Etest

MIC (Acinetobacter baumannii [1]): inactive | MIC (Acinetobacter baumannii [2]): inactive | MIC (Acinetobacter baumannii [3]): inactive | MIC (Acinetobacter baumannii [4]): inactive | MIC (Acinetobacter baumannii [5]): inactive | MIC (Acinetobacter baumannii [6]): inactive | MIC (Acinetobacter baumannii [7]): inactive | MIC (Acinetobacter baumannii [8]): inactive | MIC (Acinetobacter baumannii [9]): inactive | MIC (Acinetobacter baumannii [10]): inactive | MIC (Acinetobacter baumannii [11]): inactive | MIC (Acinetobacter baumannii [12]): inactive | MIC (Acinetobacter baumannii [13]): inactive | MIC (Acinetobacter baumannii [14]): inactive | MIC (Acinetobacter baumannii [15]): inactive | MIC (Acinetobacter baumannii [16]): inactive | MIC (Acinetobacter baumannii [17]): inactive | MIC (Acinetobacter baumannii [18]): inactive | MIC (Acinetobacter baumannii [19]): inactive | MIC (Acinetobacter baumannii [20]): inactive | MIC (Acinetobacter baumannii [21]): inactive | MIC (Acinetobacter baumannii [22]): inactive | MIC (Acinetobacter baumannii [23]): inactive | MIC (Acinetobacter baumannii [24]): inactive | MIC (Acinetobacter baumannii [25]): inactive | MIC (Acinetobacter baumannii [26]): inactive
SMILES: CCN1CCN(C(=O)N[C@@H](C(=O)N[C@@H]2C(=O)N3[C@@H]2SC(C)(C)[C@@H]3C(=O)O)c2ccccc2)C(=O)C1=O

SMILES: C[C@@H](O)[C@H]1C(=O)N2C(C(=O)O)=C(S[C@@H]3CN[C@H](C(=O)N(C)C)C3)[C@H](C)[C@H]12 [MEROPENEM]
MIC (Escherichia coli [27]): 0.012 µg/mL (≈ 0.0313 µM) | MIC (Escherichia coli [28]): 0.032 µg/mL (≈ 0.0834 µM) | MIC (Escherichia coli [29]): 0.032 µg/mL (≈ 0.0834 µM) | MIC (Acinetobacter baumannii [30]): 0.19 µg/mL (≈ 0.495 µM) | MIC (Acinetobacter baumannii [31]): 32 µg/mL (≈ 83.4 µM) | MIC (Acinetobacter baumannii [32]): > 32 µg/mL | MIC (Acinetobacter baumannii [33]): 0.25 µg/mL (≈ 0.652 µM) | MIC (Acinetobacter baumannii [34]): > 32 µg/mL | MIC (Acinetobacter baumannii [35]): > 32 µg/mL | MIC (Acinetobacter baumannii [36]): ≥ 64 µg/mL | MIC (Acinetobacter baumannii [1]): 8 µg/mL (≈ 20.9 µM) | MIC (Acinetobacter baumannii [37]): 16 µg/mL (≈ 41.7 µM) | MIC (Acinetobacter baumannii [38]): ≥ 64 µg/mL | MIC (Acinetobacter baumannii [39]): ≥ 64 µg/mL | MIC (Acinetobacter baumannii [40]): ≥ 64 µg/mL | MIC (Acinetobacter baumannii [41]): ≥ 64 µg/mL | MIC (Acinetobacter baumannii [42]): ≥ 64 µg/mL | MIC (Acinetobacter baumannii [43]): ≥ 64 µg/mL | MIC (Acinetobacter baumannii [44]): 32 µg/mL (≈ 83.4 µM) | MIC (Acinetobacter baumannii [45]): 32 µg/mL (≈ 83.4 µM) | MIC (Acinetobacter baumannii [46]): 8 µg/mL (≈ 20.9 µM) | MIC (Acinetobacter baumannii [47]): 32 µg/mL (≈ 83.4 µM) | MIC (Acinetobacter baumannii [48]): 32 µg/mL (≈ 83.4 µM) | MIC (Acinetobacter baumannii [2]): 4 µg/mL (≈ 10.4 µM) | MIC (Acinetobacter baumannii [3]): 8 µg/mL (≈ 20.9 µM) | MIC (Acinetobacter baumannii [4]): ≥ 16 µg/mL | MIC (Acinetobacter baumannii [5]): 8 µg/mL (≈ 20.9 µM) | MIC (Acinetobacter baumannii [6]): 8 µg/mL (≈ 20.9 µM) | MIC (Acinetobacter baumannii [7]): ≥ 16 µg/mL | MIC (Acinetobacter baumannii [8]): 8 µg/mL (≈ 20.9 µM) | MIC (Acinetobacter baumannii [9]): 2 µg/mL (≈ 5.22 µM) | MIC (Acinetobacter baumannii [10]): 4 µg/mL (≈ 10.4 µM) | MIC (Acinetobacter baumannii [11]): 8 µg/mL (≈ 20.9 µM) | MIC (Acinetobacter baumannii [12]): 8 µg/mL (≈ 20.9 µM) | MIC (Acinetobacter baumannii [13]): 8 µg/mL (≈ 20.9 µM)
